In patent US6620828B2, “Thiazole compounds and pharmaceutical compositions for inhibiting protein kinases and methods for their use” (Agouron Pharmaceuticals, Inc., priority 1999, dated 2003):

Tested on: human umbilical vein endothelial cells (HUVEC)
Assay: HUVEC proliferation assay
Format: cell-based
Conditions: Homo sapiens, HUVEC, Table I screening results; 150 nM; crude combinatorial amide library
Outline: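 Readout was MTT dye reduction (A595) after 72 h of stimulation with VEGF at 6 ng/ml final. Compound, in 0.1% DMSO final, was added 1 h before VEGF to HUVEC starved 24 h in 1% FBS. % inhibition was scaled between VEGF-alone and unstimulated wells; IC50 was fitted from triplicate dose curves.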

Question: Which inhibition at 0.15 µM does the source give for `COc1cc(Nc2nc(N)c(-c3nc(-c4cccc(NC(=O)c5ccc6c(c5)C(=O)NC6=O)c4)cs3)s2)cc(OC)c1OC` here?
Answer: The inhibition at 0.15 µM was -6%.

Question: For `COc1cc(Nc2nc(N)c(-c3nc(-c4cccc(NC(=O)Cc5ccccc5F)c4)cs3)s2)cc(OC)c1OC`, which inhibition at 0.15 µM is on record?
Answer: Its inhibition at 0.15 µM is 21%.

Question: Which inhibition at 0.15 µM does the source give for `COc1cc(Nc2nc(N)c(-c3nc(-c4cccc(NC(=O)c5ccc6ccccc6c5)c4)cs3)s2)cc(OC)c1OC` here?
Answer: The inhibition at 0.15 µM was 53%.

Question: Which inhibition at 0.15 µM does the source give for `COc1cc(Nc2nc(N)c(-c3nc(-c4cccc(NC(=O)c5cccc(Oc6ccccc6)c5)c4)cs3)s2)cc(OC)c1OC` here?
Answer: Its inhibition at 0.15 µM is -3%.

Question: Which inhibition at 0.15 µM does the source give for `COc1cc(Nc2nc(N)c(-c3nc(-c4cccc(NC(=O)CCC5CCCCC5)c4)cs3)s2)cc(OC)c1OC` here?
Answer: Its inhibition at 0.15 µM is 8%.

Question: With `COc1ccc(C(=O)Nc2cccc(-c3csc(-c4sc(Nc5cc(OC)c(OC)c(OC)c5)nc4N)n3)c2)cc1F` as the compound, how does the inhibition at 0.15 µM read?
Answer: The inhibition at 0.15 µM was 51%.

Question: How did the inhibition at 0.15 µM turn out when `COc1cc(Nc2nc(N)c(-c3nc(-c4cccc(NC(=O)c5ccc(C)cc5)c4)cs3)s2)cc(OC)c1OC` was run?
Answer: The inhibition at 0.15 µM was 66%.

Question: With `CCc1ccc(-c2ccc(C(=O)Nc3cccc(-c4csc(-c5sc(Nc6cc(OC)c(OC)c(OC)c6)nc5N)n4)c3)cc2)cc1` as the compound, how does the inhibition at 0.15 µM read?
Answer: The inhibition at 0.15 µM was -7%.

Question: With `C/C=C/CC(=O)Nc1cccc(-c2csc(-c3sc(Nc4cc(OC)c(OC)c(OC)c4)nc3N)n2)c1` as the compound, how does the inhibition at 0.15 µM read?
Answer: The inhibition at 0.15 µM was 38%.

Question: Which inhibition at 0.15 µM does the source give for `COC(=O)c1ccc(C(=O)Nc2cccc(-c3csc(-c4sc(Nc5cc(OC)c(OC)c(OC)c5)nc4N)n3)c2)cc1` here?
Answer: The inhibition at 0.15 µM was 23%.

Question: `COc1cc(Nc2nc(N)c(-c3nc(-c4cccc(NC(=O)c5ccc(C)s5)c4)cs3)s2)cc(OC)c1OC` [drawing 916] was tested. Which inhibition at 0.15 µM did it give?
Answer: Its inhibition at 0.15 µM is 32%.

Question: How did the inhibition at 0.15 µM turn out when `COc1cc(Nc2nc(N)c(-c3nc(-c4cccc(NC(=O)c5cn(Cc6ccccc6)c6ccccc56)c4)cs3)s2)cc(OC)c1OC` was run?
Answer: Its inhibition at 0.15 µM is -11%.

Question: Which inhibition at 0.15 µM does the source give for `COc1cc(Nc2nc(N)c(-c3nc(-c4cccc(NC(=O)CCN5CCCCC5)c4)cs3)s2)cc(OC)c1OC` here?
Answer: Its inhibition at 0.15 µM is 15%.

Question: How did the inhibition at 0.15 µM turn out when `COc1cc(Nc2nc(N)c(-c3nc(-c4cccc(NC(=O)C5CCCCC5)c4)cs3)s2)cc(OC)c1OC` was run?
Answer: The inhibition at 0.15 µM was -24%.

Same assay, conditions: Homo sapiens, HUVEC, Table II screening results; 1 nM; crude combinatorial amide library

Question: Which inhibition at 0.001 µM does the source give for `CNC(=O)Nc1nc(N)c(-c2nc(-c3cccc(NC(=O)C(=O)C4=CCCCC4)c3)cs2)s1` here?
Answer: Its inhibition at 0.001 µM is 17%.

Question: For `CNC(=O)Nc1nc(N)c(-c2nc(-c3cccc(NC(=O)C4CC4C)c3)cs2)s1` (centres unmarked), which inhibition at 0.001 µM is on record?
Answer: Its inhibition at 0.001 µM is -12%.

Question: How did the inhibition at 0.001 µM turn out when `CNC(=O)Nc1nc(N)c(-c2nc(-c3cccc(NC(=O)[C@@H]4C[C@H](C)[C@H](C)[C@@H]4C)c3)cs2)s1` was run?
Answer: The inhibition at 0.001 µM was -11%.

Question: Which inhibition at 0.001 µM does the source give for `CNC(=O)Nc1nc(N)c(-c2nc(-c3cccc(NC(=O)CCC(=O)N4CCCC4)c3)cs2)s1` here?
Answer: Its inhibition at 0.001 µM is 6%.

Question: How did the inhibition at 0.001 µM turn out when `CNC(=O)Nc1nc(N)c(-c2nc(-c3cccc(NC(=O)C4CCCC(OC)C4)c3)cs2)s1` (centres unmarked) was run?
Answer: The inhibition at 0.001 µM was 6%.

Question: For `CNC(=O)Nc1nc(N)c(-c2nc(-c3cccc(NC(=O)c4ccc(C(C)(C)C)o4)c3)cs2)s1`, which inhibition at 0.001 µM is on record?
Answer: Its inhibition at 0.001 µM is 2%.

Question: How did the inhibition at 0.001 µM turn out when `CCC(C(=O)Nc1cccc(-c2csc(-c3sc(NC(=O)NC)nc3N)n2)c1)c1ccccc1C` (centres unmarked) was run?
Answer: Its inhibition at 0.001 µM is -8%.

Question: `CNC(=O)Nc1nc(N)c(-c2nc(-c3cccc(NC(=O)C4CCN(C(C)=O)CC4)c3)cs2)s1` was tested. Which inhibition at 0.001 µM did it give?
Answer: Its inhibition at 0.001 µM is 23%.

Question: For `CNC(=O)Nc1nc(N)c(-c2nc(-c3cccc(NC(=O)/C=C/C(=O)NCC4CC4)c3)cs2)s1`, which inhibition at 0.001 µM is on record?
Answer: Its inhibition at 0.001 µM is 10%.

Question: `CCCN(CCC)CC(=O)Nc1cccc(-c2csc(-c3sc(NC(=O)NC)nc3N)n2)c1` was tested. Which inhibition at 0.001 µM did it give?
Answer: The inhibition at 0.001 µM was 10%.

Same assay, conditions: Homo sapiens, HUVEC, Table II screening results; 10 nM; crude combinatorial amide library; read-out: % inhibition @ 10 nM

Question: `CNC(=O)Nc1nc(N)c(-c2nc(-c3cccc(NC(=O)C(=O)C4=CCCCC4)c3)cs2)s1` was tested. Which inhibition at 0.01 µM did it give?
Answer: The inhibition at 0.01 µM was 19%.

Question: How did the inhibition at 0.01 µM turn out when `CNC(=O)Nc1nc(N)c(-c2nc(-c3cccc(NC(=O)C4CC4C)c3)cs2)s1` (centres unmarked) was run?
Answer: Its inhibition at 0.01 µM is 0%.

Question: `CNC(=O)Nc1nc(N)c(-c2nc(-c3cccc(NC(=O)[C@@H]4C[C@H](C)[C@H](C)[C@@H]4C)c3)cs2)s1` was tested. Which inhibition at 0.01 µM did it give?
Answer: The inhibition at 0.01 µM was -21%.

Question: `CNC(=O)Nc1nc(N)c(-c2nc(-c3cccc(NC(=O)CCC(=O)N4CCCC4)c3)cs2)s1` was tested. Which inhibition at 0.01 µM did it give?
Answer: The inhibition at 0.01 µM was -10%.

Question: With `CNC(=O)Nc1nc(N)c(-c2nc(-c3cccc(NC(=O)C4CCCC(OC)C4)c3)cs2)s1` (centres unmarked) as the compound, how does the inhibition at 0.01 µM read?
Answer: The inhibition at 0.01 µM was 5%.

Question: For `CNC(=O)Nc1nc(N)c(-c2nc(-c3cccc(NC(=O)c4ccc(C(C)(C)C)o4)c3)cs2)s1`, which inhibition at 0.01 µM is on record?
Answer: The inhibition at 0.01 µM was 69%.

Question: With `CCC(C(=O)Nc1cccc(-c2csc(-c3sc(NC(=O)NC)nc3N)n2)c1)c1ccccc1C` (centres unmarked) as the compound, how does the inhibition at 0.01 µM read?
Answer: Its inhibition at 0.01 µM is 9%.

Question: Which inhibition at 0.01 µM does the source give for `CNC(=O)Nc1nc(N)c(-c2nc(-c3cccc(NC(=O)C4CCN(C(C)=O)CC4)c3)cs2)s1` here?
Answer: The inhibition at 0.01 µM was -15%.

Question: For `CNC(=O)Nc1nc(N)c(-c2nc(-c3cccc(NC(=O)/C=C/C(=O)NCC4CC4)c3)cs2)s1`, which inhibition at 0.01 µM is on record?
Answer: Its inhibition at 0.01 µM is 1%.

Question: With `CCCN(CCC)CC(=O)Nc1cccc(-c2csc(-c3sc(NC(=O)NC)nc3N)n2)c1` as the compound, how does the inhibition at 0.01 µM read?
Answer: The inhibition at 0.01 µM was 0%.

Same assay, conditions: Homo sapiens, HUVEC, table following Table II (untitled); 1 nM; crude combinatorial library

Question: For `COc1cc(Nc2nc(N)c(-c3nc(-c4cc(NC(=O)C5CCSCN5C)ccc4C)no3)s2)cc(OC)c1OC` (centres unmarked), which inhibition at 0.001 µM is on record?
Answer: Its inhibition at 0.001 µM is 14%.

Question: Which inhibition at 0.001 µM does the source give for `COc1cc(Nc2nc(N)c(-c3nc(-c4cc(NC(=O)C5CC[C@H]6CC(O)CC[C@@H](C5)C6)ccc4C)no3)s2)cc(OC)c1OC` (some centres unmarked) here?
Answer: The inhibition at 0.001 µM was 7%.

Question: With `COc1cc(Nc2nc(N)c(-c3nc(-c4cc(NC(=O)CCC(=O)N5CCCC5)ccc4C)no3)s2)cc(OC)c1OC` as the compound, how does the inhibition at 0.001 µM read?
Answer: The inhibition at 0.001 µM was -18%.

Question: With `COc1cc(Nc2nc(N)c(-c3nc(-c4cc(NC(=O)c5cccc6cc[nH]c56)ccc4C)no3)s2)cc(OC)c1OC` as the compound, how does the inhibition at 0.001 µM read?
Answer: Its inhibition at 0.001 µM is 34%.

Question: How did the inhibition at 0.001 µM turn out when `COc1cc(Nc2nc(N)c(-c3nc(-c4cc(NC(=O)C5=CCCN(C)C5)ccc4C)no3)s2)cc(OC)c1OC` was run?
Answer: Its inhibition at 0.001 µM is 5%.

Question: How did the inhibition at 0.001 µM turn out when `COc1cc(Nc2nc(N)c(-c3nc(-c4cc(NC(=O)C(C)OC=C(C)C)ccc4C)no3)s2)cc(OC)c1OC` (centres unmarked) was run?
Answer: Its inhibition at 0.001 µM is -21%.

Same assay, conditions: Homo sapiens, HUVEC, table following Table II (untitled); 10 nM; crude combinatorial library; read-out: % inhibition @ 10 nM

Question: Which inhibition at 0.01 µM does the source give for `COc1cc(Nc2nc(N)c(-c3nc(-c4cc(NC(=O)C5CCSCN5C)ccc4C)no3)s2)cc(OC)c1OC` (centres unmarked) here?
Answer: Its inhibition at 0.01 µM is 29%.

Question: Which inhibition at 0.01 µM does the source give for `COc1cc(Nc2nc(N)c(-c3nc(-c4cc(NC(=O)C5CC[C@H]6CC(O)CC[C@@H](C5)C6)ccc4C)no3)s2)cc(OC)c1OC` (some centres unmarked) here?
Answer: The inhibition at 0.01 µM was 20%.

Question: With `COc1cc(Nc2nc(N)c(-c3nc(-c4cc(NC(=O)CCC(=O)N5CCCC5)ccc4C)no3)s2)cc(OC)c1OC` as the compound, how does the inhibition at 0.01 µM read?
Answer: Its inhibition at 0.01 µM is -20%.

Question: Which inhibition at 0.01 µM does the source give for `COc1cc(Nc2nc(N)c(-c3nc(-c4cc(NC(=O)c5cccc6cc[nH]c56)ccc4C)no3)s2)cc(OC)c1OC` here?
Answer: The inhibition at 0.01 µM was 41%.

Question: Which inhibition at 0.01 µM does the source give for `COc1cc(Nc2nc(N)c(-c3nc(-c4cc(NC(=O)C5=CCCN(C)C5)ccc4C)no3)s2)cc(OC)c1OC` here?
Answer: The inhibition at 0.01 µM was 1%.

Question: With `COc1cc(Nc2nc(N)c(-c3nc(-c4cc(NC(=O)C(C)OC=C(C)C)ccc4C)no3)s2)cc(OC)c1OC` (centres unmarked) as the compound, how does the inhibition at 0.01 µM read?
Answer: The inhibition at 0.01 µM was 11%.

Same assay, conditions: Table I screening results; 150 nM; crude combinatorial amide library

Question: Which “% inhibition @ 150 nM” value does the source give for `COc1cc(Nc2nc(N)c(-c3nc(-c4cccc(NC(=O)/C=C/c5ccc(F)cc5)c4)cs3)s2)cc(OC)c1OC` here?
Answer: The value was 0%.
